# Experimental data published in the NIST ThermoML archive (doi:10.1021/je301284x).
# Numbers after ± are expanded uncertainties.
# Columns and labels:
# [1] = Molar enthalpy of transition or fusion; conditions: Crystal; DSC
# [2] = for mass density / electrical conductivity / viscosity: 101.33 kPa, Liquid; for mass density: Vibrating tube method; for viscosity: Concentric cylinders viscometry; for Normal melting temperature: Crystal; for Normal melting temperature / Glass transition temperature: DTA
Compound,Molar enthalpy of transition or fusion [1],mass density ([2]; 293.15 K),mass density ([2]; 298.15 K),electrical conductivity ([2]; 303.15 K),viscosity ([2]; 303.15 K),mass density ([2]; 303.15 K),mass density ([2]; 308.15 K),mass density ([2]; 313.15 K),electrical conductivity ([2]; 323.15 K),viscosity ([2]; 323.15 K),electrical conductivity ([2]; 343.15 K),viscosity ([2]; 343.15 K),electrical conductivity ([2]; 363.15 K),viscosity ([2]; 363.15 K),electrical conductivity ([2]; 383.15 K),viscosity ([2]; 383.15 K),electrical conductivity ([2]; 403.15 K),electrical conductivity ([2]; 423.15 K),electrical conductivity ([2]; 443.15 K),Normal melting temperature [2],also measured
"C=CC[NH+](CC)CC.O=S(=O)([O-])C(F)(F)F [N,N-diethylprop-2-en-1-aminium trifluoromethanesulfonate]",21 ± 2 kJ/mol,1263 ± 26 kg/m3,1255 ± 26 kg/m3,0.419 ± 0.008 S/m,51 ± 1.7 mPa·s,1247 ± 26 kg/m3,1240 ± 26 kg/m3,1232 ± 26 kg/m3,0.785 ± 0.016 S/m,25.5 ± 0.8 mPa·s,1.26 ± 0.03 S/m,14.9 ± 0.5 mPa·s,1.81 ± 0.04 S/m,9.64 ± 0.31 mPa·s,2.43 ± 0.05 S/m,6.7 ± 0.22 mPa·s,3.17 ± 0.06 S/m,3.91 ± 0.08 S/m,4.71 ± 0.09 S/m,-14.00 ± 1 °C,mass density ([2]; 288.15 K): 1270 ± 27 kg/m3; viscosity ([2]; 403.15 K): 4.94 ± 0.16 mPa·s; viscosity ([2]; 423.15 K): 3.87 ± 0.13 mPa·s; Glass transition temperature [2]: -99.00 ± 6 °C
CCC[NH+](C)CCC.O=S(=O)([O-])C(F)(F)F [N-methyl-N-propylpropan-1-aminium trifluoromethanesulfonate],14 ± 2 kJ/mol,1218 ± 25 kg/m3,1211 ± 25 kg/m3,0.415 ± 0.008 S/m,48.7 ± 1.6 mPa·s,1203 ± 25 kg/m3,1196 ± 25 kg/m3,1189 ± 25 kg/m3,0.772 ± 0.015 S/m,23.9 ± 0.8 mPa·s,1.23 ± 0.03 S/m,13.6 ± 0.4 mPa·s,1.81 ± 0.04 S/m,8.63 ± 0.28 mPa·s,2.48 ± 0.05 S/m,5.96 ± 0.19 mPa·s,3.18 ± 0.06 S/m,4.04 ± 0.08 S/m,4.88 ± 0.1 S/m,17.00 ± 1 °C,viscosity ([2]; 403.15 K): 4.4 ± 0.14 mPa·s; viscosity ([2]; 423.15 K): 3.44 ± 0.11 mPa·s
"CCC[NH+](C)C.O=S(=O)([O-])C(F)(F)F [N,N-dimethylpropan-1-aminium trifluoromethanesulfonate]",20 ± 2 kJ/mol,1284 ± 27 kg/m3,1276 ± 27 kg/m3,0.901 ± 0.018 S/m,33.2 ± 1.1 mPa·s,1269 ± 27 kg/m3,1262 ± 26 kg/m3,1254 ± 26 kg/m3,1.57 ± 0.03 S/m,18 ± 0.6 mPa·s,2.39 ± 0.05 S/m,11 ± 0.4 mPa·s,3.25 ± 0.07 S/m,7.42 ± 0.24 mPa·s,4.29 ± 0.09 S/m,5.32 ± 0.17 mPa·s,5.3 ± 0.11 S/m,6.4 ± 0.13 S/m,7.68 ± 0.15 S/m,20.00 ± 1 °C,mass density ([2]; 288.15 K): 1291 ± 27 kg/m3; viscosity ([2]; 403.15 K): 4.04 ± 0.13 mPa·s; viscosity ([2]; 423.15 K): 3.19 ± 0.1 mPa·s
"CCC[NH+](CC)CC.O=S(=O)([O-])C(F)(F)F [N,N-diethylpropan-1-aminium trifluoromethanesulfonate]",21 ± 2 kJ/mol,1229 ± 26 kg/m3,1222 ± 26 kg/m3,0.384 ± 0.008 S/m,54.3 ± 1.8 mPa·s,1215 ± 25 kg/m3,1208 ± 25 kg/m3,1201 ± 25 kg/m3,0.71 ± 0.014 S/m,26.8 ± 0.9 mPa·s,1.13 ± 0.02 S/m,15.3 ± 0.5 mPa·s,1.71 ± 0.03 S/m,9.76 ± 0.32 mPa·s,2.22 ± 0.04 S/m,6.71 ± 0.22 mPa·s,2.88 ± 0.06 S/m,3.57 ± 0.07 S/m,4.31 ± 0.09 S/m,-14.00 ± 1 °C,mass density ([2]; 288.15 K): 1237 ± 26 kg/m3; viscosity ([2]; 403.15 K): 4.87 ± 0.16 mPa·s; viscosity ([2]; 423.15 K): 3.73 ± 0.12 mPa·s
CC[NH+](C)CC.O=S(=O)([O-])C(F)(F)F [diethylmethylammonium trifluoromethanesulfonate],16 ± 2 kJ/mol,1292 ± 27 kg/m3,1284 ± 27 kg/m3,0.833 ± 0.017 S/m,36.9 ± 1.2 mPa·s,1277 ± 27 kg/m3,1270 ± 27 kg/m3,1262 ± 26 kg/m3,1.45 ± 0.03 S/m,19.4 ± 0.6 mPa·s,2.15 ± 0.04 S/m,12.1 ± 0.4 mPa·s,3.15 ± 0.06 S/m,8.13 ± 0.26 mPa·s,3.91 ± 0.08 S/m,5.82 ± 0.19 mPa·s,4.73 ± 0.09 S/m,5.46 ± 0.11 S/m,5.97 ± 0.12 S/m,-6.00 ± 1 °C,mass density ([2]; 288.15 K): 1299 ± 27 kg/m3; viscosity ([2]; 403.15 K): 4.41 ± 0.14 mPa·s; viscosity ([2]; 423.15 K): 3.48 ± 0.11 mPa·s
"C=CC[NH+](C)C.O=S(=O)([O-])C(F)(F)F [N,N-dimethylprop-2-en-1-aminium trifluoromethanesulfonate]",21 ± 2 kJ/mol,1311 ± 28 kg/m3,1303 ± 27 kg/m3,0.968 ± 0.019 S/m,28.8 ± 0.9 mPa·s,1295 ± 27 kg/m3,1288 ± 27 kg/m3,1280 ± 27 kg/m3,1.74 ± 0.04 S/m,16.4 ± 0.5 mPa·s,2.65 ± 0.05 S/m,10.4 ± 0.3 mPa·s,3.73 ± 0.07 S/m,7.11 ± 0.23 mPa·s,4.92 ± 0.1 S/m,5.18 ± 0.17 mPa·s,6.19 ± 0.12 S/m,7.48 ± 0.15 S/m,8.82 ± 0.18 S/m,16.00 ± 1 °C,mass density ([2]; 288.15 K): 1318 ± 28 kg/m3; viscosity ([2]; 403.15 K): 3.95 ± 0.13 mPa·s; viscosity ([2]; 423.15 K): 3.17 ± 0.1 mPa·s
C=CC[NH+](C)CC=C.O=S(=O)([O-])C(F)(F)F,11 ± 1 kJ/mol,1261 ± 26 kg/m3,1253 ± 26 kg/m3,0.469 ± 0.009 S/m,38.5 ± 1.3 mPa·s,1246 ± 26 kg/m3,1239 ± 26 kg/m3,1231 ± 26 kg/m3,0.893 ± 0.018 S/m,19.7 ± 0.6 mPa·s,1.43 ± 0.03 S/m,11.6 ± 0.4 mPa·s,2.06 ± 0.04 S/m,7.61 ± 0.25 mPa·s,2.74 ± 0.06 S/m,5.39 ± 0.18 mPa·s,3.54 ± 0.07 S/m,4.39 ± 0.09 S/m,5.21 ± 0.1 S/m,-19.00 ± 1 °C,mass density ([2]; 288.15 K): 1268 ± 27 kg/m3; Glass transition temperature [2]: -88.00 ± 5 °C
